Data taken from ChEMBL document CHEMBL3804793, “Abietane-Type Diterpenoid Amides with Highly Potent and Selective Activity against Leishmania donovani and Trypanosoma cruzi” (J Nat Prod, 2016).

Assays:
Trypanosoma cruzi [1] = experiment: Antitrypanosomal activity against metacyclic form of Trypanosoma cruzi SN3 infected in African green monkey Vero cells after 72 hrs by Giemsa staining; type: functional, organism-based
[2] = Selectivity index, ratio of IC50 for African green monkey Vero cells to IC50 for metacyclic form of Trypanosoma cruzi SN3; type: toxicity, cell-based; conditions: read-out: Ratio IC50
Leishmania donovani [3] = experiment: Antileishmanial activity against axenic amastigotes of Leishmania donovani MHOM/SD/1962/1S-Cl2d infected in human THP1 cells assessed as parasite growth inhibition at 15 uM after 24 hrs by AlamarBlue viability assay; type: functional; conditions: read-out: GI
Leishmania donovani [4] = experiment: Antileishmanial activity against axenic amastigotes of Leishmania donovani MHOM/SD/1962/1S-Cl2d infected in human THP1 cells assessed as parasite growth inhibition at 50 uM after 24 hrs by AlamarBlue viability assay; type: functional; conditions: read-out: GI
Leishmania donovani [5] = experiment: Antileishmanial activity against axenic amastigotes of Leishmania donovani MHOM/SD/1962/1S-Cl2d […] assessed as parasite growth inhibition after 24 hrs by AlamarBlue viability assay; type: functional, organism-based
[6] = Selectivity index, ratio of IC50 for human THP1 cells to IC50 for axenic amastigotes of Leishmania donovani MHOM/SD/1962/1S-Cl2d infected in human THP1 cells; type: toxicity, cell-based, THP-1; conditions: read-out: Ratio IC50
[7] = Cytotoxicity against human THP1 cells after 48 hrs by AlamarBlue viability assay; type: cell-based; conditions: THP-1, 48 h
L6 = experiment: Cytotoxicity against rat L6 cells after 72 hrs by AlamarBlue dye based fluorimetric method; type: cell-based; conditions: L6, 72 h
[8] = Selectivity index, ratio of IC50 for rat L6 cells to IC50 for Trypanosoma cruzi Tulahuen C2C4 amastigotes; type: toxicity, cell-based; conditions: read-out: Ratio IC50
Trypanosoma cruzi [9] = experiment: Antitrypanosomal activity against trypomastigote form of Trypanosoma cruzi Tulahuen C2C4 expressing LacZ gene infected in rat L6 cells after 96 hrs by photometric method; type: functional, organism-based; conditions: Tulahuen C2C4, L6, 96 h
Trypanosoma cruzi [10] = experiment: Potency index, ratio of IC50 for benznidazole to IC50 for test compound against trypomastigote form of Trypanosoma cruzi Tulahuen C2C4 expressing LacZ gene infected in rat L6 cells; type: functional
Leishmania donovani [11] = experiment: Selectivity for axenic amastigotes of Leishmania donovani MHOM/SD/1962/1S-Cl2d infected in human macrophages over axenic amastigotes of Leishmania donovani MHOM/SD/1962/1S-Cl2d infected in human THP1 cells; type: functional, THP-1
Leishmania donovani [12] = experiment: Antileishmanial activity against axenic amastigotes of Leishmania donovani MHOM/SD/1962/1S-Cl2d infected in human macrophages at 5 uM; type: functional
Trypanosoma cruzi [13] = experiment: Antitrypanosomal activity against intracellular form of Trypanosoma cruzi; type: functional, organism-based
Leishmania donovani [14] = experiment: Antileishmanial activity against amastigotes of Leishmania donovani MHOM/SD/1962/1S-Cl2d infected in human THP1 cells assessed as parasite growth inhibition at 1 uM after 24 hrs by AlamarBlue viability assay; conditions: THP-1, 24 h

| Compound | inhibition of growth at 15 µM (Leishmania donovani [3]) | inhibition of growth at 50 µM (Leishmania donovani [4]) | IC50 (Leishmania donovani [5]) | selectivity ratio [6] | IC50 [7] | further results |
| --- | --- | --- | --- | --- | --- | --- |
| COC(=O)[C@]1(C)CCC[C@]2(C)C3=C(CC[C@@H]12)C(=O)C(C(C)C)=CC3=O |  |  |  |  |  | IC50 (Trypanosoma cruzi [1]): 17.3 µM; selectivity ratio [2]: 45 |
| CC(C)c1ccc2c(c1)CC[C@H]1[C@](C)(CNC(=O)CCC(=O)O)CCC[C@]21C | 55% | 98.1% |  |  |  |  |
| C#CC(=O)NC[C@]1(C)CCC[C@]2(C)c3ccc(C(C)C)cc3CC[C@@H]12 | 98.1% | 99.8% | 4.1 µM | < 1 | < 3 µM |  |
| CC(C)c1ccc2c(c1)CC[C@H]1[C@](C)(CNC(=O)/C=C/c3ccc([N+](=O)[O-])cc3)CCC[C@]21C |  | 42.7% |  |  |  |  |
| CC(C)c1ccc2c(c1)CC[C@H]1[C@](C)(CNC(=O)/C=C/c3ccccc3)CCC[C@]21C |  | 42.4% |  |  |  |  |
| CC(C)c1ccc2c(c1)CC[C@H]1[C@](C)(CNC(=O)c3ccccc3C(=O)O)CCC[C@]21C | 34.9% | 98.5% |  |  |  |  |
| CC(=O)NC[C@]1(C)CCC[C@]2(C)c3ccc(C(C)C)cc3CC[C@@H]12 | 96% | 98.5% | 2.4 µM | 14 | 33.3 µM | IC50 (L6): 24.3 µM; selectivity ratio [8]: 6; IC50 (Trypanosoma cruzi [9]): 3.7 µM |
| CCCC(=O)NC[C@]1(C)CCC[C@]2(C)c3ccc(C(C)C)cc3CC[C@@H]12 | 73.2% | 96.6% | 5.1 µM | 11 | 56.3 µM |  |
| C=CC(=O)NC[C@]1(C)CCC[C@]2(C)c3ccc(C(C)C)cc3CC[C@@H]12 | 99.6% | 99.8% | 0.37 µM | 63 | 23.2 µM | Ratio IC50 (Trypanosoma cruzi [10]): 3.5; IC50 (L6): 36.7 µM; selectivity ratio [8]: 58; IC50 (Trypanosoma cruzi [9]): 0.6 µM; selectivity ratio (Leishmania donovani [11]): 6; inhibition at 5 µM (Leishmania donovani [12]): 94.7% |
| CC(C)c1ccc2c(c1)CC[C@H]1[C@](C)(CNC(=O)c3nccnc3C(=O)O)CCC[C@]21C |  | 9.4% |  |  |  |  |
| CC(C)c1ccc2c(c1)CC[C@H]1[C@](C)(CNC(=O)c3ccc[nH]3)CCC[C@]21C | 90.6% | 99.1% | 3.2 µM | 10 | 33.3 µM |  |
| CC(C)c1ccc2c(c1)CC[C@H]1[C@](C)(CNC(=O)c3ccccc3)CCC[C@]21C | 56.3% | 95.7% |  |  |  |  |
| CC(C)c1ccc2c(c1)CC[C@H]1[C@](C)(CNC(=O)/C=C\C(=O)O)CCC[C@]21C | 90.7% | 98.8% | 1.9 µM | 76 | 145 µM | IC50 (L6): 33.5 µM; selectivity ratio [8]: 4; IC50 (Trypanosoma cruzi [9]): 9.5 µM; inhibition at 5 µM (Leishmania donovani [12]): 34.7% |
| CC(C)c1ccc2c(c1)CC[C@H]1[C@](C)(CN)CCC[C@]21C |  | 68.7% |  |  |  | IC50 (L6): 6.5 µM; selectivity ratio [8]: 1; IC50 (Trypanosoma cruzi [9]): 7.4 µM |
| CC(C)c1cc2c(c(O)c1O)[C@@]1(C)CCCC(C)(C)C1=C(O)C2=O [14-DEOXYCOLEON U] |  |  |  |  |  | IC50 (Trypanosoma cruzi [13]): 25.7 µM |
| C[C@@H]1[C@H](O)[C@@H](C)/C=C/C=C/C=C/C=C/C=C/C=C/C=C/[C@H](O[C@@H]2O[C@H](C)[C@@H](O)[C@H](N)[C@@H]2O)C[C@@H]2O[C@](O)(C[C@@H](O)C[C@@H](O)[C@H](O)CC[C@@H](O)C[C@@H](O)CC(=O)O[C@H]1C)C[C@H](O)[C@H]2C(=O)O [AMPHOTERICIN B] |  |  |  |  |  | inhibition at 1 µM (Leishmania donovani [14]): > 90% |
